Measured values as given in a melting point compilation (Tetko et al.; mined from patent text by program, amines drawn as free bases though some values may be those of a salt).
Residues, ends and D or L forms follow the SMILES beside them. *: point of attachment. Cbz = O=C(OCc1ccccc1)*

With `CCCN1CCN(c2nc3ccc(N=CN(C)C)cc3nc2N2CCN(CCC)CC2)CC1` the melting point was 95.5 to 98 °C.
`O=C(O)CCCC1=C(n2nc(-c3c(-c4ccccc4)nn4ccccc34)ccc2=O)CCCC1` gave a melting point of 145 to 147 °C.
`Cc1ccc(C2(O)CCNCC2)cc1` gave a melting point of 137 to 138 °C.
Compound `CC(C)NC1=Nc2ccc(Cl)cc2S(=O)(=O)N1C` has a melting point of 139 to 141 °C.
For `COc1ccc(Nc2nc(NCCN)nc(NC3CCCCCC3)n2)cc1Cl`, the melting point was 77 °C.
`COc1ccc(C(=C/C=C/C(=O)Nc2cccc3cnccc23)c2ccc(OC)cc2)cc1` showed a melting point of 197 to 199 °C.
Work on `COc1ccc(C(CC(C)=O)N2C(=O)c3cccc(NC(C)=O)c3C2=O)cc1OC1CCCC1` (configuration not stated) yielded a melting point of 145 to 147 °C.
For `COCCn1c2cc(CCO)c(OC)cc2c2c3c(c(-c4ccccc4Cl)cc21)C(=O)NC3=O`, the melting point was 271 to 273 °C.
Work on `Cc1c(C=CC=O)c2c(c(C)c1OCc1ccccc1)CCC(C)(C)O2` yielded a melting point of 89 to 99.5 °C.
In the case of `COc1cc(OC)nc(NC(=O)NS(=O)(=O)c2ccccc2-c2ccno2)n1`, the melting point is reported as 183 to 187 °C.
With `CN(O)C(=O)C=Cc1ccc2ccccc2c1` the melting point was 138 to 140 °C.
`COC1(OC)CCC(O)(c2ccc(C)cc2)CC1` showed a melting point of 93 to 97 °C.
`O=S(Cc1cccs1)c1ncc(Br)cn1` (configuration not stated) showed a melting point of 108 to 109 °C.
Work on `CCC[C@H]1CC[C@H](c2ncc(C#N)cn2)CC1` yielded a melting point of 74 °C.
Compound `CO/C=C(/C(=O)OC)n1cccc1` has a melting point of 88 to 89 °C.
Compound `CN1CC(CO)OC1=C(C#N)C=C1Nc2ccccc2C1=O` (configuration not stated) has a melting point of 236 to 238 °C.
`O=Cc1ccc2c(c1)CC(Cc1ccccc1)O2` (configuration not stated) gave a melting point of 77 to 80 °C.
With `C=CCOc1ncc(F)c(C2(C(=O)NN)C=CC=C(C)C2)n1` (configuration not stated) the melting point was 181 to 185 °C.
For `Oc1cncc2ccsc12`, the melting point was 180 °C.
With `CCC(=O)Nc1c(C(=O)c2cc(CO)co2)[nH]c2cc(Cl)ccc12` the melting point was 171 to 172 °C.
Work on `O=C(c1ccccc1)c1cc(Cl)ccc1-n1cnnc1CN1C(=O)c2ccccc2C1=O` yielded a melting point of 229 to 230 °C.
`CCOC(=O)c1ccccc1CCC(=O)Nc1cccc(/C=C/c2nc(C3CCC3)cs2)c1` showed a melting point of 110 to 111 °C.
Compound `Nc1cccc(C(=O)c2cccc3ccccc23)c1O` has a melting point of 211 °C.
`O=C(CCCCCBr)c1cc2c3c(c1)CCC(=O)N3CCC2` gave a melting point of 52 to 53 °C.
In the case of `COc1ccc(N)cc1-c1nc(C)c(-c2cccnc2)[nH]1`, the melting point is reported as 172 to 173 °C.
`O=C(O)c1cccc(-c2ccc(OC[C@H](O)CCc3cccnc3)cc2)c1` gave a melting point of 165 to 168 °C.
With `Nc1c(S)ccc2ccccc12` the melting point was 36 to 37 °C.
For `NC(=O)CCCN(Cc1ccc(Cl)cc1)Cc1ccc(Cl)cc1`, the melting point was 66 to 76 °C.
In the case of `COC(=O)c1cscc1NC(=O)C(F)Cl` (configuration not stated), the melting point is reported as 51 to 54 °C.
With `CNS(=O)(=O)c1cc(S(=O)(=O)Cl)c(Cl)cc1N` the melting point was 153 to 155 °C.
For `O=C(O)C1=Cc2cc(Cl)c(Oc3cccc(Cl)c3)cc2OC1C(F)(F)F` (configuration not stated), the melting point was 174 to 176 °C.
For `CCCn1c(=O)c2[nH]c(/C=C/c3cccc([N+](=O)[O-])c3)nc2n(CCC)c1=O`, the melting point was 256 to 257 °C.
`Fc1ccc(OCCCc2c[nH]cn2)cc1` showed a melting point of 135 to 137 °C.
Compound `CCCOc1nc(N)nc2c1ncn2C1C=CC(CO)C1` (configuration not stated) has a melting point of 97 to 99 °C.
`CCOC(=O)c1c(NCC(=O)OCCCC(=O)c2ccccc2)c2c(Cl)cc(Cl)cc2n1C(=O)OC(C)(C)C` showed a melting point of 129 to 130 °C.
`O=S(=O)(CCS(=O)(=O)c1nc(-c2ccc(F)cc2)c(-c2ccc(F)cc2)[nH]1)c1nc(-c2ccc(F)cc2)c(-c2ccc(F)cc2)[nH]1` showed a melting point of 246 to 248 °C.
For `COC(=O)Nc1cc(Cl)nc(N)n1`, the melting point was 225 to 226 °C.
In the case of `CCC(=O)Nc1cc(-c2cccnc2)nc(-c2ccco2)n1`, the melting point is reported as 252 to 253 °C.
`COc1cccc(OC)c1-c1cc(C(=O)NC2(C(=O)O)C3CC4CC(C3)CC2C4)nn1-c1ccc(NC=O)c2ccccc12` (configuration not stated) gave a melting point of 270 °C.
In the case of `CCC(O)(CCC(N)=O)c1ccc(Br)cc1` (configuration not stated), the melting point is reported as 122 to 123 °C.
`O=c1[nH]cnc2ccc(F)cc12` gave a melting point of 252 to 255 °C.
`O=C1CCC=C2N=CC=NC=C12` showed a melting point of 141 to 146 °C.
Compound `CC(=O)Oc1ccc(CCC2CC(=O)OC(=O)C2)cc1` has a melting point of 97 to 99 °C.
Work on `O=S1(=O)N=CN(C2CC2)c2ccc(Br)cc21` yielded a melting point of 242 to 244 °C.
In the case of `O=C(C=Cc1ccc(S(=O)(=O)Nc2ccccc2)cc1)NO`, the melting point is reported as 176 to 178 °C.
Work on `CCn1cc(C(=O)C(=O)O)c2ccc(-c3ccc(C(F)(F)F)cc3)cc21` yielded a melting point of 247 to 248 °C.
Work on `CC(C)(S)CN1CCN(c2ccccn2)CC1` yielded a melting point of 108 to 110 °C.
With `COCc1nc(N)nc(N)c1-c1ccc(Cl)c(Cl)c1` the melting point was 204 to 206 °C.
For `CN(Cc1cc2c(=O)c(C(=O)NCc3ccc(Cl)cc3)cn(C)c2o1)CC(O)c1ccc(O)cc1` (configuration not stated), the melting point was 72 to 75 °C.
Compound `CCCCOc1ccc2c(c1)C(N(C)S(C)(=O)=O)C(O)C(C)(C)O2` (configuration not stated) has a melting point of 138 to 140 °C.
With `COc1ccc(OC)c(CN2CCc3cc(O)c(OC)cc3C2)c1` the melting point was 104 to 105 °C.
`CNC(=O)c1cccc(NC(=O)CCc2ccc(OC)cc2)c1` gave a melting point of 151 to 152 °C.
With `O=C(COCc1ccccc1)NC(C(=O)Nc1n[nH]c(=S)s1)c1ccccc1` (configuration not stated) the melting point was 96 to 100 °C.
Compound `CCOC(=O)C(C)NC(=O)CN(C(=O)c1ccc(Cl)cc1)c1c(C)cccc1C` (configuration not stated) has a melting point of 91 to 92 °C.
Work on `CC(=O)OCC(=O)c1ccc(-c2ccccc2)cc1` yielded a melting point of 109 to 110 °C.
For `Nc1ccc(F)c(-c2ccncc2)n1`, the melting point was 189 to 190 °C.
Work on `COc1ncnc(N2CCCC2)c1Cc1cccc(F)c1` yielded a melting point of 74 to 76 °C.
In the case of `O=c1[nH]c2ccc(O)cc2[nH]1`, the melting point is reported as 186 to 187 °C.
Compound `CNc1n[nH]c(=O)n1N=C(C)CC(C)C` has a melting point of 136 °C.
`COc1cc(C(O)c2ccnc3ccccc23)ccc1OCc1ccccc1` (configuration not stated) gave a melting point of 117 to 118 °C.
Compound `Cc1oc(-c2ccco2)nc1COc1ccc(CCl)cc1Cl` has a melting point of 103 to 104 °C.
Compound `CCCCNC(=O)Nc1ccc(SCC)cc1C(=O)NCC1CCN(C(c2ccccc2)c2ccccc2)CC1` has a melting point of 159 to 160 °C.
`CSc1nc(SC)nc(-n2c(C)nc3ccccc32)n1` gave a melting point of 176 to 179 °C.
With `COc1ccc(CNc2nc(N)n3nc(-c4ccco4)nc3n2)cc1` the melting point was 238 to 239 °C.
For `COC(=O)/C=C/c1ccc(CC(C)NCC(O)c2cccc(F)c2)cc1` (configuration not stated), the melting point was 75 to 110 °C.
With `O=C(O)C1CCc2c(c3ccccc3n2C(=O)c2ccccc2)C1` (configuration not stated) the melting point was 188 to 190 °C.
`COC(=O)C1=C(C)NC(C)=C(C(=O)OCC2CCCO2)C1c1ccc(Cl)c([N+](=O)[O-])c1` (configuration not stated) gave a melting point of 148 to 150 °C.
With `Cn1cc(-c2cccc(C(F)(F)F)c2)c(=O)c(-c2cccc(S(C)(=O)=O)c2)c1` the melting point was 180 to 183 °C.
With `N#Cc1ccc(N(c2ccccc2)n2ccnc2)cc1` the melting point was 162 °C.
Work on `CC(=O)OC1CCC2(C)C(=CC(=NO)C3C2CCC2(C)C(OC(C)=O)CCC32)C1` (configuration not stated) yielded a melting point of 236 to 238 °C.
Work on `CCCCCCCNC(=O)Nc1ccc(F)cc1C(=O)NC1CCN(C(c2ccccc2)c2ccccc2)CC1` yielded a melting point of 208 to 210 °C.
With `Clc1ccc2nc(Cl)c3[nH]c4ccccc4c3c2c1` the melting point was 265 to 266 °C.
For `COc1cccc(Cn2cnc3c(Br)c(NC4=NCCN4)ccc32)c1`, the melting point was 177 to 178 °C.
For `ON=C1CCC(c2ccccc2F)c2ccccc21` (configuration not stated), the melting point was 120 °C.
`CN1c2ccc(-c3cccc4ccccc34)cc2S(=O)(=O)c2cc(-c3cccc4ccccc34)ccc21` gave a melting point of 221 to 225 °C.
For `O=c1c(CCl)cc2cc([N+](=O)[O-])ccc2n1-c1ccccc1`, the melting point was 152 to 154 °C.
Work on `COc1cc2cc3c(Nc4ccc(OCc5ccccc5)c(Cl)c4)c(C#N)cnc3cc2cc1OCCCl` yielded a melting point of 182 to 185 °C.
Work on `COc1ccc2c(c1O)C(=O)O[C@@H]2[C@H]1c2c(cc3c(c2OC)OCO3)CCN1C` yielded a melting point of 142 to 143 °C.
Work on `COC(=O)C(Cc1ccc(O)cc1)NC(=O)C(CO)NC(=O)C(Cc1c[nH]c2ccccc12)NC(=O)C(CCC(N)=O)NC(=O)OCc1ccccc1` (configuration not stated) (Cbz-QWSY-OMe; configuration not given here) yielded a melting point of 238 to 241 °C.
For `O=c1c2cc(O)ccc2sc2c([N+](=O)[O-])ccc(Cl)c12`, the melting point was > 300 °C.
In the case of `CC(=O)NCc1ccc2ccn(C3CCN(CCc4ccc(Cl)cc4)CC3)c2c1`, the melting point is reported as 148 to 149 °C.
Compound `CC(NC(=O)C(=O)c1c[nH]c2ccc(Br)cc12)c1c[nH]c2ccc(Br)cc12` (configuration not stated) has a melting point of 141 °C.
In the case of `CC1CCc2c(-n3ccnc3)c(F)cc3c(=O)c(C(=O)O)cn1c23` (configuration not stated), the melting point is reported as > 250 °C.
In the case of `CCC[C@H](C)C(=O)O[C@H]1C[C@H](O)C=C2C=C[C@H](C)[C@H](CC[C@@H]3C[C@@H](O)CC(=O)O3)[C@H]21`, the melting point is reported as 134 °C.
For `OCCOCC(O)c1ccc2ccccc2c1` (configuration not stated), the melting point was 105 to 106 °C.
`C=CCn1c(=O)c2cc(C(=O)O)cn2c2ccccc21` showed a melting point of 306 to 308 °C.
With `CCCn1nc(-c2ccc(O)c(F)c2)c2cccc(-c3ccccc3)c21` the melting point was 177 to 178 °C.
`O=C(NCCc1ccc(F)cc1)OCC1CCCCC1` gave a melting point of 44 to 45 °C.
Work on `CC(C)C1CC(=O)C(=C2CCCN2)C(=O)C1` (configuration not stated) yielded a melting point of 143 to 145 °C.
Work on `NC(=O)C(c1ccc(Cl)cc1)c1ncc(C(F)(F)F)cc1Cl` (configuration not stated) yielded a melting point of 135 to 136 °C.
Work on `Cc1cc(C#N)sc1-c1ccc2c(c1)C(C)(C)OC(=O)N2` yielded a melting point of 195 to 200 °C.
With `CC1CNC(=Nc2ccccc2N2CCOCC2)N1` (configuration not stated) the melting point was 173 to 174 °C.
Work on `CCCCCCCCCCc1nnn(CC(=O)Nc2c(C(C)C)cccc2C(C)C)n1` yielded a melting point of 108 to 110 °C.
For `CCCCc1oc2ccccc2c1C(=O)c1ccc2c(Br)c(OCc3nnn[nH]3)ccc2c1`, the melting point was 160 to 162 °C.
In the case of `O=C(NC1CN(C(=O)Nc2ccc(OC(F)(F)F)c(Cl)c2)N=C1c1ccc(Br)cc1)c1ccc(Cl)cc1` (configuration not stated), the melting point is reported as > 200 °C.
Compound `O=C(O)c1cc([N+](=O)[O-])c(-c2ccccc2)c([N+](=O)[O-])c1` has a melting point of 219 to 221 °C.
`COc1cccc2c(Sc3nc(C)c(CC(=O)O)s3)cc(C(=O)O)nc12` showed a melting point of 176 to 179 °C.
For `CCN(SN(C)C=Nc1ccc(Cl)cc1C)c1ccccc1`, the melting point was 51.5 to 53 °C.
`CC(=O)c1ccc(C(=O)Nc2ccc(-n3nc(C(F)(F)F)cc3C(F)(F)F)cc2)cc1` gave a melting point of 203 to 204 °C.
For `C=CCOc1ccc2c(c1CC=C)NC(=O)CC2`, the melting point was 119 to 121 °C.
In the case of `C[C@H](CSC(=O)C1CCCCC1)C(=O)N1CSC[C@H]1C(=O)O`, the melting point is reported as 79.5 to 80 °C.
With `O=C(O)Cn1c(=S)c2ccccc2n(Cc2ccc(Cl)c(Cl)c2)c1=O` the melting point was 237 to 238 °C.
